Read-outs that look alike come from different tables or passages of the source.
What was measured:
[1] = system: NMDA receptor; assay: Whole-cell voltage-clamp recordings of NMDA evoked currents in hypocretin neurons (hypothalamic slices); type: cell-based, mouse
[2] = system: C57/BL6 male mice; assay: Rotarod test (balance and coordination, side effects); conditions: mouse, in vivo
Description: The side effects of the compounds was primarily evaluated using the rotarod test, which mainly assesses the balancing and coordination of mice. The comparisons were made on fall time of the mice between the first measure (pre-treatment) and second measure taken 20 min after the drug/vehicle injection in the same group (paired t-test). […] Comparisons of the rotatod fall times after drug/vehicle dosing were made between drug treatment and control groups (unpaired t-test).

[3] = biological target: NMDA receptor; assay: [3H]MK-801 binding assay, NMDA receptors in guinea pig brain membranes
Description: Hartley guinea pigs were sacrificed, and their brains were quickly removed and weighed. The brains then were homogenized in 50 mM Tris HCl buffer, pH 7.7, using a Polytron homogenizer. The homogenate was centrifuged at 40,000×g for 15 min, rehomogenized, and centrifuged again. The final pellet was resuspended in Tris-HCl, pH 7.7, at a final concentration of 6.67 mg original wet weight of tissue/ml. […] The samples were then filtered through glass fiber filters on a Tomtec cell harvester. The filters were washed 3 times with 3 ml of cold buffer. Filters were dried overnight and counted next day on a Wallac Betaplate Reader.
The binding experiments were conducted as follows. […] For each compound, graphs were prepared containing individual competition curves obtained for that compound. IC50 values and Hill coefficients were calculated using the program Prism. Ki values were calculated using the Chang Prusoff transformation: Ki=IC50/(1+L/Kd)
where L is radioligand concentration and Kd is the binding affinity of the radioligand, as determined previously by saturation analysis. […] In each experiment, one standard compound was simultaneously run on each 96 well plate.

[4] = system: C57/BL6 male mice
[5] = system: primary neurons from rat cerebral cortex; assay: NMDA-induced LDH release assay in primary cortical neurons (neuroprotection); type: cell-based; design: Total LDH (Avg): unit not given here
Summary of the method: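 Fetal rat (E16–E18) cortical neurons on mouse astroglial feeder layers, fed growth medium/neurobasal+B27 (1:1), used after 11–14 days. Treatments given in Locke's buffer pH 7.4 for 15 min, then cells washed; 24 h later percent LDH released = 100×secreted/(total+secreted), tetrazolium readout.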

[6] = NMDA 300 uM + Memantine 50 uM, Plate #4, poly-lysine-coated rat neurons, GM/NB + B-27 fed, 24 hour incubation
[7] = NMDA 300 uM + Memantine 50 uM, Plate #5, astrocyte-coated rat neurons, GM fed, 24 hour incubation
[8] = NMDA 300 uM + Memantine 50 uM, astrocyte-coated rat neurons, GM/NB + B-27 fed, 24 hour incubation
[9] = NMDA 500 μM + Memantine 10 μM, astrocyte-coated rat neurons, GM/NB + B-27 fed, 21 hour incubation
[10] = NMDA 500 uM + Memantine 10 uM, poly-lysine-coated rat neurons, GM/NB + B-27 fed, 40 hour incubation
[11] = NMDA 500 μM + Memantine 100 μM, astrocyte-coated rat neurons, GM/NB + B-27 fed, 21 hour incubation
[12] = NMDA 500 uM + Memantine 100 uM, poly-lysine-coated rat neurons, GM/NB + B-27 fed, 40 hour incubation

CC12CC3CC(C)(C1)CC(N)(C3)C2 [memantine, 1-amino-3,5-dimethyladamantane, reference compound]
reversibility of inhibition of NMDA evoked currents upon washout [1]: reversible | inhibition of the peak amplitude of NMDA evoked currents ([1]; 10 µM): 41.3±10% | inhibition of the peak amplitude of NMDA evoked currents ([1]; 30 µM): 52.7±7.4% | rotarod fall time, pre-treatment vs 20 min after injection [2]: loss of performance | hyperactivity (side effect) ([2]; ip, 30 mg/kg): observed | rotarod performance after dosing vs. control ([2]; ip, 30 mg/kg): statistically significant decreases in rotarod performance | Ki ([3]; [3H]MK-801 (1 nM), guinea pig brain membrane preparation, read-out: Ki (binding affinity)): 730 nM | Relative affinity ([3]; compared to that of Memantine): 1 ^ | Ki ([3]; standard compounds at the NMDA site (Table 27), read-out: Ki): 733 ± 130 nM | Extension rate ([4]; 10 mg/kg i.p.): 0.67 | Mortality rate ([4]; 10 mg/kg i.p.): 0 | # of deaths ([4]; 10 mg/kg i.p., 6 mice): 0 | # of extensions ([4]; 10 mg/kg i.p., 6 mice): 4 | MES-induced death ([4]; low dose 10 mg/kg i.p., mice): protected all mice from death | % (Control Wash = 100) [5, 6]: 166% | Secreted LDH (Avg) [5, 6]: 0.75 | Secreted/(total + secreted) (Avg) [5, 6]: 18.20 | Total LDH (Avg) [5, 6]: 3.36 | % (Control Wash = 100) [5, 7]: 106% | Secreted LDH (Avg) [5, 7]: 0.20 | Secreted/(total + secreted) (Avg) [5, 7]: 6.20 | Total LDH (Avg) [5, 7]: 3.06 | % (Control Wash = 100) [5, 8]: 272% | Secreted LDH (Avg) [5, 8]: 0.83 | Secreted/(total + secreted) (Avg) [5, 8]: 19.63 | Total LDH (Avg) [5, 8]: 3.41 | % (Control Wash = 100) [5, 9]: 129% | Secreted LDH (Avg) [5, 9]: 0.47 | Secreted/(total + secreted) (Avg) [5, 9]: 10.73 | Total LDH (Avg) [5, 9]: 3.89 | % (Control Wash = 100) [5, 10]: 111% | Secreted LDH (Avg) [5, 10]: 0.41 | Secreted/(total + secreted) (Avg) [5, 10]: 12.77 | Total LDH (Avg) [5, 10]: 2.80 | % (Control Wash = 100) [5, 11]: 114% | Secreted LDH (Avg) [5, 11]: 0.42 | Secreted/(total + secreted) (Avg) [5, 11]: 9.47 | Total LDH (Avg) [5, 11]: 4.02 | % (Control Wash = 100) [5, 12]: 156% | Secreted LDH (Avg) [5, 12]: 0.52 | Secreted/(total + secreted) (Avg) [5, 12]: 17.86 | Total LDH (Avg) [5, 12]: 2.39

From patent publication US20080009546A1 (Chevron U.S.A. Inc., priority 2005, published 2008)
